Results as given in US6177475A, “Methods of using integrin modulators for treatment of inflammation” (priority 1997, dated 2001).

Experiments:
[1] = test system: 111In-labeled neutrophils; test: Neutrophil recruitment to inflamed joints in rat adjuvant arthritis; type: in vivo; details: 50 mg/kg i.v.; for Accumulation of 111In-labeled Neutrophils (mean ± SEM): 2 h
Procedure: Rat adjuvant arthritis is characterized by integrin-mediated migration of ^51 Cr-labeled monocytes and ^111 In-labeled neutrophils into the inflamed synovium, which attains maximum between days 14 and 21 after the immunization. This model of human rheumatoid arthritis was used to assess in vivo effects of Ajoene on integrins that are known to be modulated by Ajoene in vitro.
Adjuvant arthritis was induced in 6-8 week old inbred male Lewis rats by immunization on the lower back with 0.5 mg Mycobacterium butyricum (Difco Laboratories, Inc., Detroit, Mich.) in 0.05 ml mineral oil in two sites subcutaneously at the base of the tail. All the animals developed polyarticular arthritis between days 11 and 13 after immunization. For clinical scoring, 0-4 points were assigned per limb and tail, based on the severity of erythema, swelling, and limitation of movement (the maximal possible score was 20).
Rat blood monocytes and neutrophils for migration studies were obtained by the hydroxyethyl starch (HES) exchange transfusion technique. The total blood volume of a donor rat was exchanged using 50 ml 6% HES solution in saline (DuPont Chemical Co., Dorval, Canada). After recovery of 40-45 ml blood/HES perfusate, the red cells were allowed to sediment (1 g) and the leukocyte-rich plasma was harvested. The leukocytes were recovered by centrifugation, resuspended in calcium-magnesium-free Tyrode's solution supplemented with 10% platelet-poor plasma (TS-PPP), and centrifuged in a discontinuous 63%/74% gradient of isotonic Percoll (Pharmacia Fine Chemicals, Dorval, Canada). The top layer, containing mononuclear cells (MN), and the cells in the 63%/74% interface, containing neutrophils, were collected, washed, and resuspended in TS-PPP. To obtain purified monocytes, the osmolality of the MN suspension was increased by adding 9% NaCl, and the suspension was centrifuged in a 40%/55%/58% Percoll gradient; monocytes were harvested at 40%/55% and […] interfaces, washed, and resuspended in TS-PPP.
Thereafter, monocytes (10^7 cells/ml) were labeled with 75 microCurie/ml of Na2^51 CrO4 (Amersham, Oakville, Canada) at 37° C. for 30 min. Neutrophils (10^7 cells/ml) were labeled with 1 microCurie/ml of ^111 In oxine (Amersham) for 10 min. Both populations were washed to remove excess labeled material and checked for viability and purity. The viability of either cell population used in the experiments was in excess of 95% (as double-checked by Trypan blue exclusion and neutral red staining). The separation procedure described above ordinarily produced populations that contained no less than 90% monocytes and no less than 95% neutrophils. […]

sperm cells = type: cell-based, human; details: 200 micromoles per l
Procedure: Human sperm was from a donor with known fertility (No. 113). The sample (freshly taken) was allowed to liquefy, was diluted 3:1 with BWW/HSA, was centrifuged at 325×g for 5 minutes, and was washed once with the same medium. A small portion of the original sample was analyzed (computer-assisted sperm analysis) using the Cell-Soft package. The pellet of washed sperm cells was subjected to the swim-up procedure (1 ml of the medium was added for this purpose). The swim-up was collected (about 0.5 ml), the cells were counted (Makler chamber), and their motility determined (%). The volume of the sample was adjusted with the medium to give 10^7 cells per ml, and the samples were incubated overnight (18 hours) at 37° C. for capacitation. Thereafter, motility and cell density were determined once again, and the sample was divided into three equal portions, each to be subjected to appropriate treatment.
Equivalent volumes of ethanol and BWW/HSA were added to the two control portions of each cell type (vehicle control and untreated cells, respectively).

For `C=CCSSC=CC[S+]([O-])CC=C` (centres unmarked) [Ajoene, 4,5,9-trithiadodeca-1,6,11-triene-9-oxide], the “inhibition of neutrophil recruitment to the talar joints” value [1] was ~ 50%, the “Accumulation of 111In-labeled Neutrophils (mean ± SEM)” value (“Accumulation … (mean ± SEM)” for short) ([1]; talar joint, P < 0.001) was 15,052 cpm per sample and the “Accumulation … (mean ± SEM)” value ([1]; tarsal joint, P = 0.085) was 7,353 cpm per sample. For the same compound, the “Accumulation … (mean ± SEM)” value ([1]; vertebral joints, P = 0.089) was 3,658 cpm per sample and the “toxicity or impaired cellular vitality (motility of sperm cells)” value (sperm cells) was “not associated with toxicity or impaired cellular vitality”.
